Values of other authors in patent publication US7288574B2, “Two-phase oxygenated solution and method of use” (priority 2001, dated 2007).

Details: equilibrium with air (pO2=0.21) at 77° F.

O=O [oxygen]
solubility limit of oxygen in water: approximately 8.3 mg/l
